Source: BindingDB's records for doi:10.3109/14756360903049059 (China Pharmaceutical University, 2010)

What follows are molecules tested against T1, 3-oxoacyl-[acyl-carrier-protein] synthase 3 (Mycobacterium tuberculosis (strain ATCC 25618 / H37Rv), UniProt P9WNG3) (assay: 3D-QSAR).
T1 sequence (P9WNG3 whole entry): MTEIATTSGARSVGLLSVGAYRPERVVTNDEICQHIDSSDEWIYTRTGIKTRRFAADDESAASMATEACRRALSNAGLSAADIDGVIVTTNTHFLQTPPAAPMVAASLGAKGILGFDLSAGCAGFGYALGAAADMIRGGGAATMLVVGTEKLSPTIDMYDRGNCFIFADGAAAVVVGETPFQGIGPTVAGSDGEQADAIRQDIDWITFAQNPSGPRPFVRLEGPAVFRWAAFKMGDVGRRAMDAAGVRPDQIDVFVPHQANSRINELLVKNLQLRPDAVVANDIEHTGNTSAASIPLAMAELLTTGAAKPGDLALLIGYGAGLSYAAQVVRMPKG
Protocol: The biological activities of the compounds were evaluated in the same laboratory. Biological activities measured as IC50 were converted to pIC50 (−log(IC50)) for use in the 3D-QSAR study.

Structure (SMILES)	IC50 [µM]
COC(=O)c1ccc(CC#CC2(C)SC(=O)C(C)=C2O)cc1 (centres undefined) [mtFabH inhibitor, 5]	74
CC(=O)Nc1cccc(-c2ccc(CC3(C)SC(=O)C(C)=C3O)cc2)c1 (centres undefined) [mtFabH inhibitor, 25]	119
CC1=C(O)C(C)(C#CCc2ccc([N+](=O)[O-])cc2)SC1=O (centres undefined) [mtFabH inhibitor, 6]	34
COc1ccc(CC2(C)SC(=O)C(C)=C2O)cc1 (centres undefined) [mtFabH inhibitor, 12]	155
CC1=C(O)C(C)(C#Cc2ccccc2C#N)SC1=O (centres undefined) [mtFabH inhibitor, 8]	48
CC(=O)c1ccc(C#CC2(C)SC(=O)C(C)=C2O)cc1O (centres undefined) [mtFabH inhibitor, 4]	7
CC1=C(O)C(C)(C#CCc2ccc(C#N)cc2)SC1=O (centres undefined) [mtFabH inhibitor, 7]	7
C#CC1(C)SC(=O)C(C)=C1O (centres undefined) [mtFabH inhibitor, 2]	100
CC1=C(O)C(C)(Cc2cccc(C(=O)c3ccccc3)c2)SC1=O (centres undefined) [mtFabH inhibitor, 40]	283
CC1=C(O)C(C)(Cc2ccccc2)SC1=O (centres undefined) [mtFabH inhibitor, 9]	250
CC(=O)c1ccc(C#CC2(C)SC(=O)C(C)=C2O)cc1 (centres undefined) [mtFabH inhibitor, 3]	4
CC1=C(O)C(C)(Cc2ccc(C(F)(F)F)cc2)SC1=O (centres undefined) [mtFabH inhibitor, 27]	100
COc1ccc(C2(C)SC(=O)C(C)=C2O)cc1 (centres undefined) [mtFabH inhibitor, 13]	500
CCCCCCCCCCCCCC1(C)SC(=O)C(C)=C1O (centres undefined) [mtFabH inhibitor, 26]	80
